Read-outs that look alike come from different tables or passages of the source.
What was measured:
FKBP12 = FKBP12 (Homo sapiens, UniProt P62942); assay: competitive fluorescence polarization assay, binding to FKBP12
Procedure: (§1) All macrocyclic compounds were tested in a competitive fluorescence polarization assay for binding towards FKBP51 as well as the homologs FKBP12, FKBP12.6 and FKBP52 (Table 1).
(§2) Example 8: […] of the Macrocyclic FKBP51 Ligands by SPPS

FKBP12.6 = FKBP12.6 (Homo sapiens, UniProt P68106); assay: competitive fluorescence polarization assay, binding to FKBP12.6
FKBP12.6, sequence (P68106 whole entry): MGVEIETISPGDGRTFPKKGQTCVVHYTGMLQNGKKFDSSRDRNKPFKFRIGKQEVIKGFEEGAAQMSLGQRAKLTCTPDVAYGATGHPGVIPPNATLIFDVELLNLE
Procedure: as §1, §2

FKBP51FK1 = biological target: T1, FKBP51FK1 (Homo sapiens, UniProt Q13451); assay: biochemical
T1 sequence (Q13451 42-130 limits assumed): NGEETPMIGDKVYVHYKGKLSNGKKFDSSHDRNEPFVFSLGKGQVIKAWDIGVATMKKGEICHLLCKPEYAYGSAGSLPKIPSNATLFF
Procedure: as §1, §2

[1] = Table 1, competitive Fluorescence Polarization Assay, read-out: Ki [nM] FKBP12
[2] = Table 1, competitive Fluorescence Polarization Assay, read-out: Ki [nM] FKBP12.6
[3] = Ki [nM] FKBP51FK1, Table 1, competitive Fluorescence Polarization Assay
[4] = affinity, same values as Table 2 FKBP51FK1
[5] = FKBP51FK1 Ki [μM], Table 2, [a] standard error from three, [c] error from two independent measurements

FKBP12, sequence (P62942 whole entry): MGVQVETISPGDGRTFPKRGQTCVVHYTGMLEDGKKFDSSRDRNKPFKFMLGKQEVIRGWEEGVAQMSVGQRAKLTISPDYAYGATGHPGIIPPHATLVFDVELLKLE

Row | Ki (FKBP12; [1]) [nM] | Ki (FKBP12.6; [2]) [nM] | Ki (FKBP51FK1; [3]) [nM] | Compound | other results
1 | 308 | 78 | 47 | COc1ccc(CC[C@H]2OC(=O)[C@@H]3CCCCN3C(=O)[C@@H](C3CCCCC3)c3cc(OC)c(OC)c(c3)OCCOc3cccc2c3)cc1OC [Compound 57] | –
2 | 384 | 211 | 67 | COc1ccc(CC[C@H]2OC(=O)[C@@H]3CCCCN3C(=O)[C@@H](C3CCCCC3)c3cc(OC)c(c(OC)c3)OCCCOc3cccc2c3)cc1OC [Compound 56] | –
3 | – | – | – | COc1ccc(CC[C@H]2OC(=O)[C@@H]3CCCCN3C(=O)[C@@H](C3CCCCC3)NC(=O)[C@@H]3CCC[C@H]3NC(=O)COc3cccc2c3)cc1OC [Compound 94, (2R,5S,12R,15R,19R)-12-cyclohexyl-2-[2-(3,4-dimethoxyphenyl)ethyl]-3,23-dioxa-10,13,20-triazatetracyclo[22.3.1.0^5,10.0^15,19]octacosa-1(28),24,26-triene-4,11,14,21-tetrone] | Ki (FKBP12; Table 2, read-out: FKBP12 Ki): > 80000 nM; Ki (FKBP12.6; Table 2, read-out: FKBP12.6 Ki): > 80000 nM; Ki (FKBP51FK1; [4]): 1800 nM
4 | – | – | – | COc1ccc(CC[C@H]2OC(=O)[C@@H]3CCCCN3C(=O)[C@@H](C3CCCCC3)NC(=O)CCNC(=O)COc3cccc2c3)cc1OC [Compound 93, (2R,5S,12R)-12-cyclohexyl-2-[2-(3,4-dimethoxyphenyl)ethyl]-3,20-dioxa-10,13,17-triazatricyclo[19.3.1.0^5,10]pentacosa-1(25),21,23-triene-4,11,14,18-tetrone] | Ki (FKBP12; Table 2, read-out: FKBP12 Ki): > 80000 nM; Ki (FKBP12.6; Table 2, read-out: FKBP12.6 Ki): > 80000 nM; affinity (in words) (FKBP51FK1): reduced affinity; Ki (FKBP51FK1; [5]): 7400 nM
5 | – | – | – | COc1ccc(CCC2OC(=O)C3CCCCN3C(=O)C(C3CCCCC3)c3cc(OC)c(OC)c(c3)OC/C=C/COc3cccc2c3)cc1OC (centres unmarked) [35-(E)] | Ki (FKBP12; Table 1, unit μM printed in the cell, read-out: Ki FKBP12): > 100000 nM; Ki (FKBP12.6; Table 1, unit μM printed in the cell, read-out: Ki FKBP12.6): > 100000 nM; Ki (FKBP51FK1; Ki FKBP51FK1, Table 1, unit μM printed in the cell): > 5000 nM
6 | – | – | – | COc1ccc(CC[C@H]2OC(=O)[C@@H]3CCCCN3C(=O)[C@@H](C3CCCCC3)CC(O)C(O)COCCOc3cccc2c3)cc1OC (stereo partly drawn) [Compound 82, (2R,5S,12R)-12-cyclohexyl-2-[2-(3,4-dimethoxyphenyl)ethyl]-14,15-dihydroxy-3,17,20-trioxa-10-azatricyclo[19.3.1.0^5,10]pentacosa-1(25),21,23-triene-4,11-dione] | binding to FKBP12 (in words) (FKBP12): did not bind; binding to FKBP12.6 (in words) (FKBP12.6): did not bind; Ki (FKBP51FK1; Ki, bound to FKBP51, text b114): 1200 nM
7 | 189 | 237 | 80 | COc1ccc(CC[C@H]2OC(=O)[C@@H]3CCCCN3C(=O)[C@@H](C3CCCCC3)c3cc(OC)c(c(OC)c3)OCC/C=C\COc3cccc2c3)cc1OC [32-(Z)] | –
8 | 261 | 328 | 70 | COc1ccc(CC[C@H]2OC(=O)[C@@H]3CCCCN3C(=O)[C@@H](C3CCCCC3)c3cc(OC)c(c(OC)c3)OC/C=C\COc3cccc2c3)cc1OC [31-(Z)] | –
9 | 412 | 190 | 64 | COc1ccc(CC[C@H]2OC(=O)[C@@H]3CCCCN3C(=O)[C@@H](C3CCCCC3)c3cc(OC)c(c(OC)c3)OCCOc3cccc2c3)cc1OC [Compound 55] | –
10 | 38 | 22 | 8 | COc1ccc(CC[C@H]2OC(=O)[C@@H]3CCCCN3C(=O)[C@@H](C3CCCCC3)c3cc(OC)c(OC)c(c3)OCCC(=O)CCOc3cccc2c3)cc1OC [Compound 61a] | –
11 | 270 | 190 | 113 | COc1ccc(CC[C@H]2OC(=O)[C@@H]3CCCCN3C(=O)[C@@H](C3CCCCC3)c3cc(OC)c(OC)c(c3)OCCOC/C=C\COc3cccc2c3)cc1OC [37-(Z)] | –
12 | – | – | – | COc1ccc(CC[C@H]2OC(=O)[C@@H]3CCCCN3C(=O)[C@@H](C3CCCCC3)NC(=O)CNC(=O)COc3cccc2c3)cc1OC [Compound 83, (2R,5S,12R)-12-cyclohexyl-2-[2-(3,4-dimethoxyphenyl)ethyl]-3,19-dioxa-10,13,16-triazatricyclo[18.3.1.0^5,10]tetracosa-1(24),20,22-triene-4,11,14,17-tetrone] | Ki (FKBP12; Table 2, read-out: FKBP12 Ki): > 80000 nM; Ki (FKBP12.6; Table 2, read-out: FKBP12.6 Ki): > 80000 nM; Ki (FKBP51FK1; [4]): 2300 nM
13 | 182 | 74 | 46 | COc1ccc(CC[C@H]2OC(=O)[C@@H]3CCCCN3C(=O)[C@@H](C3CCCCC3)c3cc(OC)c(OC)c(c3)OCCOC/C=C/COc3cccc2c3)cc1OC [37-(E)] | –
14 | 92 | 62 | 30 | COc1ccc(CC[C@H]2OC(=O)[C@@H]3CCCCN3C(=O)[C@@H](C3CCCCC3)c3cc(OC)c(OC)c(c3)OCCCCOc3cccc2c3)cc1OC [Compound 43] | –
15 | 58 | 37 | 28 | COc1ccc(CC[C@H]2OC(=O)[C@@H]3CCCCN3C(=O)[C@@H](C3CCCCC3)c3cc(OC)c(OC)c(c3)OCCCC(=O)COc3cccc2c3)cc1OC [Compound 61b] | –
16 | – | – | – | COc1cc2cc(c1)[C@@H](CCc1ccc(OC)c(OC)c1)OC(=O)[C@@H]1CCCCN1C(=O)[C@@H](C1CCCCC1)NC(=O)C(C)(C)NC(=O)CO2 [Compound 104, (2R,5S,12R)-12-cyclohexyl-2-[2-(3,4-dimethoxyphenyl)ethyl]-22-methoxy-15,15-dimethyl-3,19-dioxa-10,13,16-triazatricyclo[18.3.1.0^5,10]tetracosa-1(24),20,22-triene-4,11,14,17-tetrone] | affinity (in words) (FKBP51FK1): bound similarly to the glycine derivative 83; Ki (FKBP51FK1; [5]): 390 nM
17 | 534 | 361 | – | COc1ccc(CC[C@H]2OC(=O)[C@@H]3CCCCN3C(=O)[C@@H](C3CCCCC3)c3cc(OC)c(c(OC)c3)OCCOC/C=C/COc3cccc2c3)cc1OC [33-(E)] | –
18 | – | – | – | COc1ccc(CC[C@H]2OC(=O)[C@@H]3CCCCN3C(=O)[C@@H](C3CCCCC3)NC(=O)CCCNC(=O)COc3cccc2c3)cc1OC [Compound 95, (2R,5S,12R)-12-cyclohexyl-2-[2-(3,4-dimethoxyphenyl)ethyl]-3,21-dioxa-10,13,18-triazatricyclo[20.3.1.0^5,10]hexacosa-1(26),22,24-triene-4,11,14,19-tetrone] | affinity (in words) (FKBP51FK1): no binding
19 | – | – | – | COc1ccc(CC[C@H]2OC(=O)[C@@H]3CCCCN3C(=O)[C@@H](C3CCCCC3)NC(=O)[C@H]3CCCN3C(=O)COc3cccc2c3)cc1OC [Compound 90, (9R,12R,19S,22R)-12-cyclohexyl-22-[2-(3,4-dimethoxyphenyl)ethyl]-2,21-dioxa-5,11,14-triazatetracyclo[21.3.1.0^5,9.0^14,19]heptacosa-1(26),23(27),24-triene-4,10,13,20-tetrone] | Ki (FKBP12; Table 2, read-out: FKBP12 Ki): > 80000 nM; Ki (FKBP12.6; Table 2, read-out: FKBP12.6 Ki): > 80000 nM
20 | – | – | – | COc1ccc(CC[C@H]2OC(=O)[C@@H]3CCCCN3C(=O)[C@@H](C3CCCCC3)NC(=O)C3(CC3)NC(=O)COc3cccc2c3)cc1OC [Compound 86, (2′R,5′S,12′R)-12′-cyclohexyl-2′-[2-(3,4-dimethoxyphenyl)ethyl]-3′,19′-dioxa-10′,13′,16′-triazaspiro[cyclopropane-1,15′-tricyclo[18.3.1.0^5,10]tetracosane]-1′(24′),20′,22′-triene-4′,11′,14′,17′-tetrone] | Ki (FKBP12; Table 2, read-out: FKBP12 Ki): > 80000 nM; Ki (FKBP12.6; Table 2, read-out: FKBP12.6 Ki): > 80000 nM
21 | 309 | 186 | – | COc1ccc(CC[C@H]2OC(=O)[C@@H]3CCCCN3C(=O)[C@@H](C3CCCCC3)c3cc(OC)c(c(OC)c3)OCCOC/C=C\COc3cccc2c3)cc1OC [33-(Z)] | –
22 | – | – | – | COc1ccc(CC[C@H]2OC(=O)[C@@H]3CCCCN3C(=O)[C@@H](C3CCCCC3)NC(=O)[C@@H](C)NC(=O)COc3cccc2c3)cc1OC [Compound 84, (2R,5S,12R,15R)-12-cyclohexyl-2-[2-(3,4-dimethoxyphenyl)ethyl]-15-methyl-3,19-dioxa-10,13,16-triazatricyclo[18.3.1.0^5,10]tetracosa-1(24),20,22-triene-4,11,14,17-tetrone] | Ki (FKBP12; Table 2, read-out: FKBP12 Ki): > 80000 nM; Ki (FKBP12.6; Table 2, read-out: FKBP12.6 Ki): > 80000 nM
